Measurements published in BindingDB's records for patent US20240158406 (Chengdu Baiyu Pharmaceutical Co., 2024).

Molecular target: T1, Protein mono-ADP-ribosyltransferase TIPARP (Homo sapiens, UniProt Q7Z3E1)
T1 sequence (Q7Z3E1 whole entry): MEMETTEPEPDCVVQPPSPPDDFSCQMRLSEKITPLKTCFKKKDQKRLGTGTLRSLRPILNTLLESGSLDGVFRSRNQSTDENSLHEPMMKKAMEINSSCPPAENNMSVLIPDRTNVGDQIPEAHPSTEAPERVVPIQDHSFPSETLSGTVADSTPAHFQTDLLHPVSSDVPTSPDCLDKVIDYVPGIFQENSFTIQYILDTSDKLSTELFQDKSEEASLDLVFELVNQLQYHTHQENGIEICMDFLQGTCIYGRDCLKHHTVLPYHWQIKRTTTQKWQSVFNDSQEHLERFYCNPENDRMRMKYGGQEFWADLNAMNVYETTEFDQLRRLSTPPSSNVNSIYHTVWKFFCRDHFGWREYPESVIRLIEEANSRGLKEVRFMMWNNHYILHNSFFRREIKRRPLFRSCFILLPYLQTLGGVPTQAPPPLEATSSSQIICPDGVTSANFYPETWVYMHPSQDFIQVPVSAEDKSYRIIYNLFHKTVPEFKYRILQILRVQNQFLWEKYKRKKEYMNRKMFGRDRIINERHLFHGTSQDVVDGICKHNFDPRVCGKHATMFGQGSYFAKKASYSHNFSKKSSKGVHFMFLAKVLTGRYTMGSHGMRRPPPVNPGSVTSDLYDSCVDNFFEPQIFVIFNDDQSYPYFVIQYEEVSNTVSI
Assay: Enzymatic Biochemical Assay of PARP
Method: The specific scheme was as follows: the 1× histone mixture was added to a 96-well plate at 50 μL per well, and the plate was incubated overnight at 4° C. The next day, after the plate was washed with PBST, 200 μL of blocking buffer per well was added, and the plate was incubated for 90 min. After the plate was washed with PBST again, 5 μL of inhibitor, 20 μL of 1×PARP buffer and 25 μL of […] were added to each well, and the plate was incubated at room temperature for 30 min. After the plate was washed with PBST, 100 μL of Elisa ECL substrate A and B mixture was added to each well, chemiluminescence value was immediately read using a plate reader, and IC50 values were calculated.

IC50: < 10 nM
SMILES: C[C@@H](COCc1nn2c(c1Cl)CN(c1cnc(C(F)(F)F)cn1)CC2)Nc1cn[nH]c(=O)c1C(F)(F)F [US20240158406, Compound 14]
